According to article PMC9607644, “Glycoconjugation of Quinoline Derivatives Using the C-6 Position in Sugars as a Strategy for Improving the Selectivity and Cytotoxicity of Functionalized Compounds” (Molecules, 2022):

Experiments:
NHDF-Neo cells = assay: Annexin V-FITC/PI apoptosis flow cytometry, NHDF-Neo; assay type: cell-based; conditions: IC50 dose, 24 h
Description: This is important information from the point of view of drug design, as it provides detailed information on the cytotoxicity of a compound. Apoptosis is a natural biological process involving programmed cell death and plays an important role in maintaining correct homeostasis between cell proliferation and cell death. This is in contrast to necrosis, which is accompanied by acute inflammation, preceded by cell degradation due to the loss of the integrity of the cell membrane. It is possible to distinguish viable cells from apoptotic and necrotic cell fractions using Annexin V-FITC and Propidium Iodide (PI). Annexin V-FITC labels phosphatidylserine residues that, after the start of apoptosis, are located on the outer surface of the cell membrane, enabling the identification of cells in the early stages of apoptosis. PI binds stoichiometrically to intracellular DNA during late apoptosis and necrosis when the cell membrane has been damaged. This combination allows for the differentiation of early apoptotic (A+/P−), late apoptotic (A+/P+), necrosis (A−/P+), and normal (A−/P−) cells that can be quantified by flow cytometry. The experiments were performed on the HCT-116 and MCF-7 cancer cell lines and the NHDF-Neo healthy cell line. […] The results of the level of apoptosis induction by the tested compounds are presented in Figure 7 and in the Supplementary Materials (Figure S73).
The cell cycle and the type of cell death induced by the test compounds were measured by using flow cytometry according to the manufacturer’s protocol. The cells were seeded into 6-well plates at a density of 3 × 10^5 (HCT-116) or 4 × 10^5 (MCF-7, NHDF-Neo) per well (3 mL) and allowed to attach for 24 h under standard conditions with 5% CO2 at 37 °C. The following day, the medium was removed and cells were treated with solutions of test compounds in fresh medium at a dose equal to their IC50 values. Control cells were grown with fresh medium supplemented with 0.5% DMSO. After 24 h of incubation, the cells were collected by trypsinization. Then, samples were centrifuged (3 min, 2000 rpm, RT) and washed with PBS, after which the cells were centrifuged again (3 min, 2000 rpm, RT) and the supernatant was carefully removed. The resulting precipitate contained cells, which were used for flow cytometry experiments.
The fraction of dead cells after treatment with the test compounds were detected using the FITC Annexin-V Apoptosis Detection Kit with PI (BioLegend, San Diego, CA, USA). First, cells were suspended in 50 μL of cold Annexin-V Binding Buffer (BioLegend, San Diego, CA, USA) and incubated in the dark with 2.5 μL of antibody Annexin-V FITC and 10 μL of propidium iodide (PI) at 37 °C for 20 min. 250 μL of the Annexin-V Binding Buffer was then added and the samples were incubated in the dark on ice for 15 min. Cytometric analyses were performed using an Aria III flow cytometer (Becton Dickinson, Franklin Lakes, NJ, USA) with the FITC configuration (488 nm excitation; emission: LP mirror 503, BP filter 530/30) or PE configuration (547 nm excitation; emission: 585 nm) and at least 10,000 cells were counted.

HCT-116 cells = assay: Annexin V-FITC/PI apoptosis flow cytometry, HCT-116; assay type: cell-based, human; conditions: IC50 dose, 24 h
Description: Apoptosis is a natural biological process involving programmed cell death and plays an important role in maintaining correct homeostasis between cell proliferation and cell death. This is in contrast to necrosis, which is accompanied by acute inflammation, preceded by cell degradation due to the loss of the integrity of the cell membrane. It is possible to distinguish viable cells from apoptotic and necrotic cell fractions using Annexin V-FITC and Propidium Iodide (PI). Annexin V-FITC labels phosphatidylserine residues that, after the start of apoptosis, are located on the outer surface of the cell membrane, enabling the identification of cells in the early stages of apoptosis. PI binds stoichiometrically to intracellular DNA during late apoptosis and necrosis when the cell membrane has been damaged. This combination allows for the differentiation of early apoptotic (A+/P−), late apoptotic (A+/P+), necrosis (A−/P+), and normal (A−/P−) cells that can be quantified by flow cytometry.
The cell cycle and the type of cell death induced by the test compounds were measured by using flow cytometry according to the manufacturer’s protocol. […] Control cells were grown with fresh medium supplemented with 0.5% DMSO. After 24 h of incubation, the cells were collected by trypsinization. Then, samples were centrifuged (3 min, 2000 rpm, RT) and washed with PBS, after which the cells were centrifuged again (3 min, 2000 rpm, RT) and the supernatant was carefully removed. The resulting precipitate contained cells, which were used for flow cytometry experiments.
The fraction of dead cells after treatment with the test compounds were detected using the FITC Annexin-V Apoptosis Detection Kit with PI (BioLegend, San Diego, CA, USA). […] 250 μL of the Annexin-V Binding Buffer was then added and the samples were incubated in the dark on ice for 15 min.

Compound	cells in late apoptosis, NHDF-Neo (NHDF-Neo cells)	necrotic cells, NHDF-Neo (NHDF-Neo cells)	apoptotic cells, HCT-116 (HCT-116 cells)	normal cells remained, NHDF-Neo (NHDF-Neo cells)	apoptosis induction in words, HCT-116 (HCT-116 cells)	dead cell fraction, NHDF-Neo (NHDF-Neo cells)
OC[C@H]1O[C@@H](n2cc(COc3cccc4cccnc34)nn2)[C@H](O)[C@@H](O)[C@@H]1O [Compound E-2, reference compound]	57%	9%				
OC1O[C@H](Cn2cc(COc3cccc4cccnc34)nn2)[C@@H](O)[C@H](O)[C@H]1O (some centres unmarked) [Compound A-2]			46%	95%		
CC(=O)OC[C@H]1O[C@@H](n2cc(COc3cccc4cccnc34)nn2)[C@H](OC(C)=O)[C@@H](OC(C)=O)[C@@H]1OC(C)=O [Compound E-1, reference compound]	61%	14%			did not induce apoptosis	
CC(=O)OC1O[C@H](Cn2cc(COc3cccc4cccnc34)nn2)[C@@H](OC(C)=O)[C@H](OC(C)=O)[C@H]1OC(C)=O (some centres unmarked) [Compound A-1]			29%	98%		
O[C@@H]1[C@@H](O)[C@@H](O[C@H]2O[C@H](Cn3cc(COc4cccc5cccnc45)nn3)[C@@H](O)[C@H](O)[C@H]2O)O[C@H](Cn2cc(COc3cccc4cccnc34)nn2)[C@H]1O [Compound D-2]			87%			51%
